Key:
[1] = solubility of silibinin in water; format: physicochemical
Description: In certain embodiments, the disclosure provides compositions to deliver the active ingredient to the root bulb of the hair follicle. Silibinin is not soluble in water. Creating a cream formulation could possibly lead to clogging of pores at the site of the hair follicle, which could negatively affect restoration of the follicle. In certain aspects, the present disclosure relates to delivery of silibinin using oil-based formulations. Oil is absorbed into the stratum corneum and deeper layers of the skin where the root bulb cells are located.

[2] = solubility of silibinin in acetone; format: physicochemical; conditions: dissolved at 40-50° C. in Example 1
Experimental: Silibinin is soluble in acetone. We evaluated the possibility that silibinin could be first dissolved in acetone and then put into solution with an oil carrier. Since acetone evaporates to completion out of any open system, it could be removed leaving the silibinin in solution. One should keep in mind that acetone is incredibly flammable, and methods for removing acetone should be chosen carefully.
Briefly, a total desired amount of silibinin was dissolved into acetone at moderate temperature (40-50° C.). Capric/capryllic triglyceride was then added with mixing until completely mixed. […] The solution was cooled with stirring. Rosemary EO 1 was added once the temperature was below 50° C., and the product was poured into dispensing containers for use by test subjects.

Q: Which solubility in water [1] does the source give for `COc1cc(C2Oc3cc([C@H]4Oc5cc(O)cc(O)c5C(=O)[C@@H]4O)ccc3OC2CO)ccc1O` (some centres unmarked) [Silibinin] here?
A: not soluble

Q: What about the solubility in acetone [2] of the same compound?
A: soluble

— patent US20180028424A1, “COMPOSITIONS FOR IMPROVING THE HEALTH OF HAIR, SKIN, AND NAILS” (FYBRANDS CORP., priority 2015, published 2018)
